Source: ChEMBL document CHEMBL3792297, “Studies on phenothiazines: New microtubule-interacting compounds with phenothiazine A-ring as potent antineoplastic agents” (Bioorg Med Chem, 2016)

Legend:
NCI-H522 = experiment: Growth inhibition of human NCI-H522 cells at 10 uM after 48 hrs by SRB assay relative to control; type: functional; settings: NCI-H522, 48 h, read-out: GI
[1] = Growth inhibition of human UACC62 cells at 10 uM after 48 hrs by SRB assay relative to control; type: functional; settings: UACC-62, 48 h, read-out: GI
NCI-H23 = experiment: Growth inhibition of human NCI-H23 cells at 10 uM after 48 hrs by SRB assay relative to control; type: functional; settings: NCI-H23, 48 h, read-out: GI
CCRF-CEM = experiment: Growth inhibition of human CCRF-CEM cells at 10 uM after 48 hrs by SRB assay relative to control; type: functional; settings: read-out: GI
K562 = experiment: Growth inhibition of human K562 cells at 10 uM after 48 hrs by SRB assay relative to control; type: functional; settings: K562, 48 h, read-out: GI
786-0 = experiment: Growth inhibition of human 786-0 cells at 10 uM after 48 hrs by SRB assay relative to control; type: functional; settings: 786-0, 48 h, read-out: GI
NCI-H226 = experiment: Growth inhibition of human NCI-H226 cells at 10 uM after 48 hrs by SRB assay relative to control; type: functional; settings: NCI-H226, 48 h, read-out: GI
[2] = Growth inhibition of human SF295 cells at 10 uM after 48 hrs by SRB assay relative to control; type: functional; settings: SF-295, 48 h, read-out: GI
[3] = Growth inhibition of human HOP92 cells at 10 uM after 48 hrs by SRB assay relative to control; type: functional; settings: HOP-92, 48 h, read-out: GI
A549 = experiment: Growth inhibition of human A549 cells at 10 uM after 48 hrs by SRB assay relative to control; type: functional; settings: A549, 48 h, read-out: GI
NCI-H460 = experiment: Growth inhibition of human NCI-H460 cells at 10 uM after 48 hrs by SRB assay relative to control; type: functional; settings: NCI-H460, 48 h, read-out: GI
[4] = Growth inhibition of human UO31 cells at 10 uM after 48 hrs by SRB assay relative to control; type: functional; settings: UO-31, 48 h, read-out: GI
[5] = Growth inhibition of human DU145 cells at 10 uM after 48 hrs by SRB assay relative to control; type: functional; settings: DU-145, 48 h, read-out: GI
[6] = Growth inhibition of human OVCAR3 cells at 10 uM after 48 hrs by SRB assay relative to control; type: functional; settings: OVCAR-3, 48 h, read-out: GI
[7] = Growth inhibition of human HCC2998 cells at 10 uM after 48 hrs by SRB assay relative to control; type: functional; settings: HCC 2998, 48 h, read-out: GI
NCI-H322M = experiment: Growth inhibition of human NCI-H322M cells at 10 uM after 48 hrs by SRB assay relative to control; type: functional; settings: read-out: GI
[8] = Growth inhibition of human MOLT4 cells at 10 uM after 48 hrs by SRB assay relative to control; type: functional; settings: MOLT-4, 48 h, read-out: GI
[9] = Growth inhibition of human PC3 cells at 10 uM after 48 hrs by SRB assay relative to control; type: functional; settings: PC-3, 48 h, read-out: GI
[10] = Growth inhibition of human RXF393 cells at 10 uM after 48 hrs by SRB assay relative to control; type: functional; settings: RXF 393, 48 h, read-out: GI
MCF7 = experiment: Growth inhibition of human MCF7 cells at 10 uM after 48 hrs by SRB assay relative to control; type: functional; settings: MCF7, 48 h, read-out: GI
[11] = Growth inhibition of human COLO205 cells at 10 uM after 48 hrs by SRB assay relative to control; type: functional; settings: COLO 205, 48 h, read-out: GI
[12] = Growth inhibition of human OVCAR4 cells at 10 uM after 48 hrs by SRB assay relative to control; type: functional; settings: OVCAR-4, 48 h, read-out: GI
[13] = Growth inhibition of human SF539 cells at 10 uM after 48 hrs by SRB assay relative to control; type: functional; settings: SF-539, 48 h, read-out: GI
Malme-3M = experiment: Growth inhibition of human MALME-3M cells at 10 uM after 48 hrs by SRB assay relative to control; type: functional; settings: read-out: GI
SR = experiment: Growth inhibition of human SR cells at 10 uM after 48 hrs by SRB assay relative to control; type: functional; settings: read-out: GI
A498 = experiment: Growth inhibition of human A498 cells at 10 uM after 48 hrs by SRB assay relative to control; type: functional; settings: A498, 48 h, read-out: GI
[14] = Growth inhibition of human RPMI8226 cells at 10 uM after 48 hrs by SRB assay relative to control; type: functional; settings: RPMI-8226, 48 h, read-out: GI
Ovis aries = species: Ovis aries; experiment: Inhibition of sheep brain tubulin polymerization at 100 uM by DAPI staining-based fluorimetric method
[15] = Growth inhibition of human OVCAR5 cells at 10 uM after 48 hrs by SRB assay relative to control; type: functional; settings: OVCAR-5, 48 h, read-out: GI
[16] = Growth inhibition of human SNB75 cells at 10 uM after 48 hrs by SRB assay relative to control; type: functional; settings: SNB-75, 48 h, read-out: GI
[17] = Growth inhibition of human HOP62 cells at 10 uM after 48 hrs by SRB assay relative to control; type: functional; settings: HOP-62, 48 h, read-out: GI
[18] = Growth inhibition of human BT549 cells at 10 uM after 48 hrs by SRB assay relative to control; type: functional; settings: BT-549, 48 h, read-out: GI
[19] = Growth inhibition of human TK10 cells at 10 uM after 48 hrs by SRB assay relative to control; type: functional; settings: TK-10, 48 h, read-out: GI
U-251 = experiment: Growth inhibition of human U251 cells at 10 uM after 48 hrs by SRB assay relative to control; type: functional; settings: U-251, 48 h, read-out: GI
KM12 = experiment: Growth inhibition of human KM12 cells at 10 uM after 48 hrs by SRB assay relative to control; type: functional; settings: KM12, 48 h, read-out: GI
[20] = Growth inhibition of human LOXIMVI cells at 10 uM after 48 hrs by SRB assay relative to control; type: functional; settings: LOX IMVI, read-out: GI
M14 = experiment: Growth inhibition of human M14 cells at 10 uM after 48 hrs by SRB assay relative to control; type: functional; settings: M14, 48 h, read-out: GI
T47D = experiment: Growth inhibition of human T47D cells at 10 uM after 48 hrs by SRB assay relative to control; type: functional; settings: read-out: GI
MDA-MB-231 = experiment: Growth inhibition of human MDA-MB-231 cells at 10 uM after 48 hrs by SRB assay relative to control; type: functional; settings: MDA-MB-231, 48 h, read-out: GI
EKVX = experiment: Growth inhibition of human EKVX cells at 10 uM after 48 hrs by SRB assay relative to control; type: functional; settings: read-out: GI

| Structure (SMILES) | inhibition of growth at 10 µM (NCI-H522) [%] | inhibition of growth at 10 µM [1] [%] | inhibition of growth at 10 µM (NCI-H23) [%] | inhibition of growth at 10 µM (CCRF-CEM) [%] | inhibition of growth at 10 µM (K562) [%] | inhibition of growth at 10 µM (786-0) [%] | inhibition of growth at 10 µM (NCI-H226) [%] | inhibition of growth at 10 µM [2] [%] | inhibition of growth at 10 µM [3] [%] | inhibition of growth at 10 µM (A549) [%] | inhibition of growth at 10 µM (NCI-H460) [%] | inhibition of growth at 10 µM [4] [%] | inhibition of growth at 10 µM [5] [%] | inhibition of growth at 10 µM [6] [%] | inhibition of growth at 10 µM [7] [%] | inhibition of growth at 10 µM [8] [%] | inhibition of growth at 10 µM [9] [%] | inhibition of growth at 10 µM [10] [%] | inhibition of growth at 10 µM (MCF7) [%] | inhibition of growth at 10 µM [11] [%] | also measured |
| --- | --- | --- | --- | --- | --- | --- | --- | --- | --- | --- | --- | --- | --- | --- | --- | --- | --- | --- | --- | --- | --- |
| O/N=C(/c1ccc2c(c1)Sc1ccccc1N2)c1c[nH]c2ccccc12 | 100 | 54 | 24 | 76 | 87 | 38 | 23 | 55 | 51 | 48 | 82 | 41 | 41 | 96 | 5 | 74 | 72 | 24 | 57 | 45 | inhibition of growth at 10 µM (NCI-H322M): 26%; inhibition of growth at 10 µM [12]: 26%; inhibition of growth at 10 µM [13]: 29%; inhibition of growth at 10 µM (Malme-3M): 45%; inhibition of growth at 10 µM (SR): 91%; inhibition of growth at 10 µM (A498): 53%; inhibition of growth at 10 µM [14]: 53%; inhibition (Ovis aries): 15%; inhibition of growth at 10 µM [15]: 31%; inhibition of growth at 10 µM [16]: 47%; inhibition of growth at 10 µM [17]: 42%; inhibition of growth at 10 µM [18]: 63%; inhibition of growth at 10 µM [19]: 21%; inhibition of growth at 10 µM (U-251): 31%; inhibition of growth at 10 µM (KM12): 76%; inhibition of growth at 10 µM [20]: 44% |
| COc1ccc(C(=O)c2ccc3c(c2)Sc2ccccc2N3C)cc1F | 22 | 26 | 13 | 12 | 61 | 16 | 15 | 16 | 17 | 44 | 13 | 2 | 0 | 40 | 5 | 17 | 21 | 11 | 37 | 34 | inhibition of growth at 10 µM (NCI-H322M): 5%; inhibition of growth at 10 µM [12]: 10%; inhibition of growth at 10 µM [13]: 19%; inhibition of growth at 10 µM (Malme-3M): 24%; inhibition of growth at 10 µM (SR): 32%; inhibition of growth at 10 µM (A498): 45%; inhibition of growth at 10 µM [14]: 5%; inhibition of growth at 10 µM [15]: 12%; inhibition of growth at 10 µM [16]: 1%; inhibition of growth at 10 µM [17]: 17%; inhibition of growth at 10 µM [18]: 58%; inhibition of growth at 10 µM [19]: 8%; inhibition of growth at 10 µM (U-251): 18%; inhibition of growth at 10 µM (KM12): 30%; inhibition of growth at 10 µM [20]: 21% |
| COc1ccc(C(=O)c2ccc3c(c2)Sc2cc(C(=O)c4ccc(OC)c(F)c4)ccc2N3C)cc1F | 20 | 0 | 4 | 0 | 6 | 23 | 0 | 0 | 1 | 15 | 0 | 1 | 0 | 16 | 0 | 0 | 3 | 2 | 7 | 0 | inhibition of growth at 10 µM (NCI-H322M): 0%; inhibition of growth at 10 µM [12]: 0%; inhibition of growth at 10 µM [13]: 6%; inhibition of growth at 10 µM (Malme-3M): 5%; inhibition of growth at 10 µM (SR): 4%; inhibition of growth at 10 µM (A498): 5%; inhibition of growth at 10 µM [14]: 0%; inhibition of growth at 10 µM [15]: 0%; inhibition of growth at 10 µM [16]: 2%; inhibition of growth at 10 µM [17]: 6%; inhibition of growth at 10 µM [18]: 34%; inhibition of growth at 10 µM [19]: 7%; inhibition of growth at 10 µM (U-251): 10%; inhibition of growth at 10 µM (KM12): 0%; inhibition of growth at 10 µM [20]: 0% |
| COc1ccc(C(=O)N2c3ccccc3Sc3ccccc32)cc1F | 100 | 62 | 86 | 88 | 82 | 64 | 30 | 89 | 45 | 83 | 96 | 50 | 95 | 100 | 82 | 67 | 71 | 84 | 82 | 100 | inhibition of growth at 10 µM (M14): 92%; inhibition of growth at 10 µM (T47D): 49%; inhibition of growth at 10 µM (MDA-MB-231): 69%; inhibition of growth at 10 µM [12]: 59%; inhibition of growth at 10 µM [13]: 91%; inhibition of growth at 10 µM (Malme-3M): 45%; inhibition of growth at 10 µM (SR): 75%; inhibition of growth at 10 µM [14]: 44%; inhibition of growth at 10 µM (EKVX): 59%; inhibition (Ovis aries): 99%; inhibition of growth at 10 µM [15]: 57%; inhibition of growth at 10 µM [16]: 81%; inhibition of growth at 10 µM [17]: 50%; inhibition of growth at 10 µM [18]: 83%; inhibition of growth at 10 µM [19]: 49%; inhibition of growth at 10 µM (U-251): 90%; inhibition of growth at 10 µM (KM12): 81%; inhibition of growth at 10 µM [20]: 64% |
